Experiment [1] in a line: Cytotoxicity against mouse BA/F3 cells expressing EGFR L858R mutant. Conditions: BaF3. It is filed as functional, cell-based.
Experiment [2] can be described thus: Cytotoxicity against mouse BA/F3 cells expressing EGFR L858R/T790M mutant. It is filed as functional, cell-based. Conditions: BaF3.

For orientation: IC50 means the concentration needed to halve the response being measured. Low readings indicate inhibition by little substance, high ones a need for much substance.

For `C#Cc1cccc(Nc2ncnc3cc(OCCOC)c(OCCOC)cc23)c1` [ERLOTINIB], inhibition in experiment [1] was half-maximal at 12.5 nM (IC50).

For `CCOc1cc2ncc(C#N)c(Nc3ccc(OCc4ccccn4)c(Cl)c3)c2cc1NC(=O)/C=C/CN(C)C` [NERATINIB], the values for the IC50 in experiment [2] and in experiment [1] were 180 nM and 3.5 nM, respectively.

Source of the values: ChEMBL document CHEMBL1152780, “Kinase domain mutations in cancer: implications for small molecule drug design strategies” (J Med Chem, 2009).
